Values joined by “and” are separate entries in the source; they are usually repeats but may differ in a detail not shown here. Identical values can stand only once.
System: intragastric pH
Test: 24-h intragastric pH monitoring after single intravenous dexlansoprazole in healthy Chinese subjects
Assay type: in vivo, human
Procedure: Dexlansoprazole injection (30 mg per vial) used in the PK and PD study was manufactured by Nanjing Yoko Pharma Co., Ltd. (Nanjing, China). Subjects received an intravenous infusion of 20 or 30 mg dexlansoprazole injection in sterile saline solution (100 mL/h, 60 min). The study drug was administrated with an infusing pump (SA213, Lifepum, Beijing, China) and given through an intravenous catheter in the antecubital vein opposite to the one from which blood samples were taken.
An ambulatory pH recorder (Orion II, MMS, USA) with a disposable pH catheter (VersaFlex, MMS, USA) was used to monitor intragastric pH. The electrode was placed in water for at least 10 min and then calibrated using standard buffer solutions (pH 1.07 and 7.01) before intubation. Both calibration and intubation processes were conducted under the guidance of MMS Virtual Instructor Program. The catheter, trans nasally placed 10 cm under the lower esophageal sphincter, was identified by a sharp decrease in pH (Wang et al., [2010], [2011]). Subjects were intubated on baseline and the day of dosing at about 7:30 a.m., and the intragastric pH data were recorded continuously for 24 h from 8:00 a.m. Intragastric pH was sampled every second, and the data were stored in a MMS Database program (MMS, USA). The PD parameters including Median (pH), Mean (pH), TpH≥3 (%), TpH≥4 (%), TpH≥6 (%), TpH≥6, and AUC^pH−t were analyzed by the MMS Database program.
Median (pH) and mean (pH) were well-investigated in most studies, and the percentage time of pH ≥ 4 (or pH ≥ 4 holding time ratio) was the benchmark for predicting clinical efficacy of PPIs in treating acid-related diseases (Metz et al., [2009]). Novel parameter TpH≥6 (time to first gastric pH ≥ 6, min) and AUCτ 1-τ 2pH-t (area under pH-time curve from τ1 to τ2, pH·s) were defined to evaluate the velocity and extent of pharmacodynamics with more accuracy. All parameters were calculated and compared according to time periods of 0–24, 0–4, 4–10, 10–14, and 14–24 h post dosing.
The parameter AUCτ 1-τ 2pH-t was calculated as follows:
Where t represented the time duration measured by seconds, AUCτ 1-τ 210-t was the area between the pH line = 10 and the pH-time curve, which was generated by the MMS software.
Baseline-adjusted PD parameters were calculated as follows: for example, ΔAUC^pH−t = AUC^pH−t − AUC^pH−tbaseline, ΔMean (pH) = Mean (pH) − Mean (pH)^baseline, and ΔMedian (pH) = Median (pH) − Median (pH)^baseline.

Cc1c(OCC(F)(F)F)ccnc1C[S@@+]([O-])c1nc2ccccc2[nH]1 [dexlansoprazole]
time to first gastric pH ≥ 6 (TpH≥6) (20 mg group): 76 (± 29) min and 76 ± 29 min
Mean (pH) (20 mg iv, 0–4 h): 4.3 ± 1.5 pH
Median (pH) (20 mg iv, 0–4 h): 4.6 ± 2.1 pH
TpH≥3(%) (20 mg iv, 0–4 h): 57.5 ± 22.1 %
TpH≥4(%) (20 mg iv, 0–4 h): 46.5 ± 26.3 %
TpH≥6(%) (20 mg iv, 0–4 h): 33.2 ± 29.4 %
ΔMean (pH) (20 mg iv, 0–4 h): 2.1 ± 1.1 pH
ΔMedian (pH) (20 mg iv, 0–4 h): 2.5 ± 1.9 pH
ΔTpH≥3(%) (20 mg iv, 0–4 h): 47.1 ± 20.6%
ΔTpH≥4 (%) (20 mg iv, 0–4 h): 39.0 ± 22.3 %
ΔTpH≥6(%) (20 mg iv, 0–4 h): 27.6 ± 24.2 %
Mean (pH) (20 mg iv, 0–24 h): 4.9 ± 1.2 pH
Median (pH) (20 mg iv, 0–24 h): 4.9 ± 1.5 pH
TpH≥3(%) (20 mg iv, 0–24 h): 68.5 ± 20.9 %
TpH≥4(%) (20 mg iv, 0–24 h): 60.4 ± 22.2 %
TpH≥6(%) (20 mg iv, 0–24 h): 40.1 ± 21.3 %
ΔMean (pH) (20 mg iv, 0–24 h): 2.4 ± 1.0 pH
ΔMedian (pH) (20 mg iv, 0–24 h): 3.1 ± 1.5 pH
ΔTpH≥3(%) (20 mg iv, 0–24 h): 44.5 ± 19.0 %
ΔTpH≥4 (%) (20 mg iv, 0–24 h): 45.0 ± 20.7 %
ΔTpH≥6(%) (20 mg iv, 0–24 h): 33.7 ± 18.8 %
Mean (pH) (20 mg iv, 4–10 h): 6.2 ± 1.4 pH
Median (pH) (20 mg iv, 4–10 h): 6.3 ± 1.6 pH
TpH≥3(%) (20 mg iv, 4–10 h): 89.4 ± 23.1%
TpH≥4(%) (20 mg iv, 4–10 h): 89.0 ± 22.1%
TpH≥6(%) (20 mg iv, 4–10 h): 64.1 ± 31.0 %
ΔMean (pH) (20 mg iv, 4–10 h): 3.3 ± 1.4 pH
ΔMedian (pH) (20 mg iv, 4–10 h): 3.6 ± 1.7 pH
ΔTpH≥3(%) (20 mg iv, 4–10 h): 51.8 ± 29.6%
ΔTpH≥4 (%) (20 mg iv, 4–10 h): 65.8 ± 26.9%
ΔTpH≥6(%) (20 mg iv, 4–10 h): 54.9 ± 32.2 %
Mean (pH) (20 mg iv, 10–14 h): 6.5 ± 1.6 pH
Median (pH) (20 mg iv, 10–14 h): 6.6 ± 1.6 pH
TpH≥3(%) (20 mg iv, 10–14 h): 92.7 ± 18.1%
TpH≥4(%) (20 mg iv, 10–14 h): 88.4 ± 22.7%
TpH≥6(%) (20 mg iv, 10–14 h): 70.9 ± 35.5%
ΔMean (pH) (20 mg iv, 10–14 h): 3.3 ± 1.4 pH
ΔMedian (pH) (20 mg iv, 10–14 h): 3.7 ± 1.5 pH
ΔTpH≥3(%) (20 mg iv, 10–14 h): 43.8 ± 25.3%
ΔTpH≥4 (%) (20 mg iv, 10–14 h): 55.5 ± 26.0%
ΔTpH≥6(%) (20 mg iv, 10–14 h): 63.7 ± 34.3%
Mean (pH) (20 mg iv, 14–24 h): 3.6 ± 1.3 pH
Median (pH) (20 mg iv, 14–24 h): 3.2 ± 1.4 pH
TpH≥3(%) (20 mg iv, 14–24 h): 48.7 ± 30.8 %
TpH≥4(%) (20 mg iv, 14–24 h): 37.6 ± 31.3 %
TpH≥6(%) (20 mg iv, 14–24 h): 16.3 ± 19.3 %
ΔMean (pH) (20 mg iv, 14–24 h): 1.6 ± 1.1 pH
ΔMedian (pH) (20 mg iv, 14–24 h): 1.5 ± 1.3 pH
ΔTpH≥3(%) (20 mg iv, 14–24 h): 38.8 ± 27.8 %
ΔTpH≥4 (%) (20 mg iv, 14–24 h): 31.2 ± 28.2 %
ΔTpH≥6(%) (20 mg iv, 14–24 h): 12.0 ± 14.0 %
time to first gastric pH ≥ 6 (TpH≥6) (30 mg group): 58 (± 25) min and 58 ± 25 min
Mean (pH) (30 mg iv, 0–4 h): 5.5 ± 1.5 pH
Median (pH) (30 mg iv, 0–4 h): 6.1 ± 2.0 pH
TpH≥3(%) (30 mg iv, 0–4 h): 72.3 ± 20.8%
TpH≥4(%) (30 mg iv, 0–4 h): 66.5 ± 23.4%
TpH≥6(%) (30 mg iv, 0–4 h): 54.6 ± 29.2%
ΔMean (pH) (30 mg iv, 0–4 h): 3.3 ± 1.1 pH
ΔMedian (pH) (30 mg iv, 0–4 h): 4.1 ± 1.9 pH
ΔTpH≥3(%) (30 mg iv, 0–4 h): 57.5 ± 22.2%
ΔTpH≥4 (%) (30 mg iv, 0–4 h): 56.6 ± 19.6%
ΔTpH≥6(%) (30 mg iv, 0–4 h): 50.7 ± 26.1%
Mean (pH) (30 mg iv, 0–24 h): 6.1 ± 1.2 pH
Median (pH) (30 mg iv, 0–24 h): 6.4 ± 1.4 pH
TpH≥3(%) (30 mg iv, 0–24 h): 85.1 ± 15.7%
TpH≥4(%) (30 mg iv, 0–24 h): 79.8 ± 19.0%
TpH≥6(%) (30 mg iv, 0–24 h): 64.2 ± 21.0%
ΔMean (pH) (30 mg iv, 0–24 h): 3.4 ± 1.1 pH
ΔMedian (pH) (30 mg iv, 0–24 h): 4.3 ± 1.3 pH
ΔTpH≥3(%) (30 mg iv, 0–24 h): 58.6 ± 18.5%
ΔTpH≥4 (%) (30 mg iv, 0–24 h): 62.8 ± 20.3%
ΔTpH≥6(%) (30 mg iv, 0–24 h): 56.6 ± 18.8%
Mean (pH) (30 mg iv, 4–10 h): 6.9 ± 1.0 pH
Median (pH) (30 mg iv, 4–10 h): 7.1 ± 0.9 pH
TpH≥3(%) (30 mg iv, 4–10 h): 96.8 ± 7.6%
TpH≥4(%) (30 mg iv, 4–10 h): 94.5 ± 11.9%
TpH≥6(%) (30 mg iv, 4–10 h): 83.2 ± 22.3%
ΔMean (pH) (30 mg iv, 4–10 h): 4.2 ± 1.2 pH
ΔMedian (pH) (30 mg iv, 4–10 h): 4.6 ± 1.2 pH
ΔTpH≥3(%) (30 mg iv, 4–10 h): 60.4 ± 21.3%
ΔTpH≥4 (%) (30 mg iv, 4–10 h): 75.7 ± 19.2%
ΔTpH≥6(%) (30 mg iv, 4–10 h): 80.3 ± 22.3%
Mean (pH) (30 mg iv, 10–14 h): 7.2 ± 1.2 pH
Median (pH) (30 mg iv, 10–14 h): 7.3 ± 1.3 pH
TpH≥3(%) (30 mg iv, 10–14 h): 96.8 ± 9.5%
TpH≥4(%) (30 mg iv, 10–14 h): 95.0 ± 12.9%
TpH≥6(%) (30 mg iv, 10–14 h): 84.5 ± 24.3%
ΔMean (pH) (30 mg iv, 10–14 h): 4.2 ± 1.5 pH
ΔMedian (pH) (30 mg iv, 10–14 h): 4.5 ± 1.7 pH
ΔTpH≥3(%) (30 mg iv, 10–14 h): 54.1 ± 28.5%
ΔTpH≥4 (%) (30 mg iv, 10–14 h): 70.6 ± 26.4%
ΔTpH≥6(%) (30 mg iv, 10–14 h): 82.1 ± 23.6%
Mean (pH) (30 mg iv, 14–24 h): 5.5 ± 1.5 pH
Median (pH) (30 mg iv, 14–24 h): 5.3 ± 1.9 pH
TpH≥3(%) (30 mg iv, 14–24 h): 78.9 ± 27.7%
TpH≥4(%) (30 mg iv, 14–24 h): 70.6 ± 31.1%
